The target of experiment [1] is T1, hNET (Homo sapiens, UniProt P23975).
T1 construct: expressed in transfected cells; host or cells: HEK-293
Kind of experiment: hNET membrane radioligand binding assay (Assay 1). Conditions: 3H-nisoxetine, membranes from HEK-293 cells expressing hNET; read-out: NET pKi (converted). As to the method: (§1) Membrane radioligand binding assays were used to measure inhibition of labeled ligand (^3H-citalopram or ^3H-nisoxetine or ^3H-WIN35428) binding to membranes prepared from cells expressing the respective human recombinant transporter (hSERT or hNET or hDAT) in order to determine the pKi values of test compounds at the transporters.
(§2) Recombinant human embryonic kidney (HEK-293) derived cell lines stably transfected with hSERT or hNET, respectively, were grown in DMEM medium supplemented with 10% dialyzed FBS (for hSERT) or FBS (for hNET), 100 μg/ml penicillin, 100 μg/ml streptomycin, 2 mM L-glutamine and 250 μg/ml of the aminoglycoside antibiotic G418, in a 5% CO2 humidified incubator at 37° C. When cultures reached 80% confluence, the cells were washed thoroughly in PBS (without Ca^2+ and Mg^2+) and lifted with 5 mM EDTA in PBS. Cells were pelleted by centrifugation, resuspended in lysis buffer (10 mM Tris-HCl, pH7.5 containing 1 mM EDTA), homogenized, pelleted by centrifugation, then resuspended in 50 mM Tris-HCl, pH 7.5 and 10% sucrose at 4° C. Protein concentration of the membrane suspension was determined using a Bio-Rad Bradford Protein Assay kit. Membranes were snap frozen and stored at −80° C. Chinese hamster ovary membranes expressing hDAT (CHO-DAT) were purchased from PerkinElmer and stored at −80° C.
(§3) Binding assays were performed in a 96-well assay plate in a total volume of 200 μL assay buffer (50 mM Tris-HCl, 120 mM NaCl, 5 mM KCl, pH 7.4) with 0.5, 1, and 3 μg membrane protein, for SERT, NET and DAT, respectively.
(§4) Stock solutions (10 mM in DMSO) of test compound were prepared and serial dilutions made using Dilution Buffer (50 mM Tris-HCl, 120 mM NaCl, 5 mM KCl, pH 7.4, 0.1% BSA, 400 μM ascorbic acid).
(§5) Following a 60 minute incubation at 22° C. (or a period sufficient to reach equilibrium), the membranes were harvested by rapid filtration over a 96-well UniFilter GF/B plate, pretreated with 0.3% polyethyleneimine, and washed 6 times with 300 μl wash buffer (50 mM Tris-HCl, 0.9% NaCl, pH 7.5 at 4° C.). Plates were dried overnight at room temperature, ˜45 μl of MicroScint™-20 (Perkin Elmer) added and bound radioactivity quantitated via liquid scintillation spectroscopy. Inhibition curves and saturation isotherms were analyzed using GraphPad Prism Software package (GraphPad Software, Inc., San Diego, Calif.). IC50 values were generated from concentration response curves using the Sigmoidal Dose Response (variable slope) algorithm in Prism GraphPad. Kd and Bmax values for the radioligand were generated from saturation isotherms using the Saturation Binding Global Fit algorithm in Prism GraphPad. pKi (negative decadic logarithm of Ki) values for test compounds were calculated from the best-fit IC50 values, and the Kd value of the radioligand, using the Cheng-Prusoff equation (Cheng & Prusoff (1973) Biochem. Pharmacol. 22(23):3099-3108): Ki=IC50/(1+[L]/Kd), where [L]=concentration radioligand.

Experiment [2] addresses T2, hSERT (Homo sapiens, UniProt P31645).
T2 construct: expressed in transfected cells; host or cells: HEK-293
Kind of experiment: hSERT membrane radioligand binding assay (Assay 1). Conditions: 3H-citalopram, membranes from HEK-293 cells expressing hSERT; read-out: SERT pKi (converted). How it is done: as §1, §2, §3, §4, §5

T2 sequence (P31645 whole entry): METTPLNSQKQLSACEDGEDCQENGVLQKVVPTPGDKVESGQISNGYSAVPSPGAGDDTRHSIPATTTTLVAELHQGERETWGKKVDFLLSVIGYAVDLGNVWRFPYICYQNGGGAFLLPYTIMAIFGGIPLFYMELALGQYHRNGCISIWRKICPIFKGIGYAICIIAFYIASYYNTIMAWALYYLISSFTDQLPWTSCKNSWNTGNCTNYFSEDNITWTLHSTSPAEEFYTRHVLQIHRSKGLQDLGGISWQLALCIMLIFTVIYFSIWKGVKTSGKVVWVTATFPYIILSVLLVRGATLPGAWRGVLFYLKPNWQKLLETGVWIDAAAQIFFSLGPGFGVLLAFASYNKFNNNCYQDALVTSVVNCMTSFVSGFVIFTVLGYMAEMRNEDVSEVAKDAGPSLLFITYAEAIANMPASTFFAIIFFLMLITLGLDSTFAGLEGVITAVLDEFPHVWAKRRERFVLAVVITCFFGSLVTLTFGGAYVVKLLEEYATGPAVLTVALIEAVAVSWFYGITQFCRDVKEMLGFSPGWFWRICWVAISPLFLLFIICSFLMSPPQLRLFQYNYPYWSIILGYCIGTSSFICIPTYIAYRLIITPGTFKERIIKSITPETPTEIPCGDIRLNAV
T1 sequence (P23975 whole entry): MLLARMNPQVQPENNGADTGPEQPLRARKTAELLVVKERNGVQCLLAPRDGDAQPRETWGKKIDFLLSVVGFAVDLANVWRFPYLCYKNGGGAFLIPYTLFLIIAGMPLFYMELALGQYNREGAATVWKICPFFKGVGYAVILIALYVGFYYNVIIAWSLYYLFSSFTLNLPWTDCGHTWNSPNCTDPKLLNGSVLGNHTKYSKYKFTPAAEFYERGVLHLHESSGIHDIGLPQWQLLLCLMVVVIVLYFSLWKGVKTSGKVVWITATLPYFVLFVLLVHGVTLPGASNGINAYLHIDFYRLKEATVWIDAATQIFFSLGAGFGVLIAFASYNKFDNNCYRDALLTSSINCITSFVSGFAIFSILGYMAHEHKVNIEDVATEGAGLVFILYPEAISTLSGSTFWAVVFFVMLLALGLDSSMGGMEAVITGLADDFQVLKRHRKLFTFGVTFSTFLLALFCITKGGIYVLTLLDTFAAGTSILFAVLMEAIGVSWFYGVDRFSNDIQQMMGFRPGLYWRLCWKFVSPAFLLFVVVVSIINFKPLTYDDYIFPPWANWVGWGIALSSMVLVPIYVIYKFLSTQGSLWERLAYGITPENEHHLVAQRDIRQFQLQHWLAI

Consider `Ic1cccc(OCc2ccccc2N2CCNCC2)c1` [Example 1, 1-[2-(3-Iodophenoxymethyl)phenyl]piperazine], for which the Ki in experiment [1] and in experiment [2] was not above 100 nM in each case.

For `Fc1ccccc1OCc1ccccc1N1CCNCC1` [Example 2-1], the Ki in experiment [1] was not above 100 nM; in experiment [2] it was not above 10000 nM.

For `Clc1ccccc1OCc1ccccc1N1CCNCC1` [Example 2-2], the values for the Ki in experiment [1] and in experiment [2] were not above 10000 nM and not above 100 nM, respectively.

Regarding `Ic1ccccc1OCc1ccccc1N1CCNCC1` [Example 2-3], the Ki in experiment [1] and in experiment [2] was not above 100 nM throughout.

Regarding `Cc1ccccc1OCc1ccccc1N1CCNCC1` [Example 2-4], the results for the Ki in experiment [1] and in experiment [2] were not above 10000 nM and not above 100 nM, respectively.

With `CC(C)c1ccccc1OCc1ccccc1N1CCNCC1` [Example 2-5], the Ki in experiment [1] is not above 10000 nM; in experiment [2] it was not above 100 nM.

In the case of `CCc1ccccc1OCc1ccccc1N1CCNCC1` [Example 2-6], the Ki in experiment [1] was not above 10000 nM; in experiment [2] it was not above 100 nM.

As for `COc1ccccc1OCc1ccccc1N1CCNCC1` [Example 2-7], the Ki is not above 10000 nM in experiment [1] and not above 100 nM in experiment [2].

In the case of `c1ccc(-c2ccccc2OCc2ccccc2N2CCNCC2)cc1` [Example 2-8], the values for the Ki in experiment [1] and in experiment [2] were not above 10000 nM and not above 100 nM, respectively.

In the case of `c1ccc(Cc2ccccc2OCc2ccccc2N2CCNCC2)cc1` [Example 2-9], the Ki was not above 10000 nM in experiment [1] and not above 100 nM in experiment [2].

Take `c1ccc(Oc2ccccc2OCc2ccccc2N2CCNCC2)cc1` [Example 2-10]: the Ki is not above 100 nM in experiment [1] and not above 10000 nM in experiment [2].

For the compound `c1ccc(COc2ccccc2OCc2ccccc2N2CCNCC2)cc1` [Example 2-11], the Ki in experiment [1] and in experiment [2] was not above 10000 nM each time.

In the case of `Brc1cccc(OCc2ccccc2N2CCNCC2)c1` [Example 2-13], the Ki in experiment [1] and in experiment [2] was not above 100 nM each time.

Consider `Cc1cccc(OCc2ccccc2N2CCNCC2)c1` [Example 2-14], for which the Ki in experiment [1] was not above 10000 nM; in experiment [2], not above 100 nM.

In the case of `CC(C)(C)c1cccc(OCc2ccccc2N2CCNCC2)c1` [Example 2-15], the Ki in experiment [1] and in experiment [2] was not above 10000 nM each time.

With `COc1cccc(OCc2ccccc2N2CCNCC2)c1` [Example 2-16], the figures for the Ki in experiment [1] and in experiment [2] were not above 10000 nM and not above 100 nM, respectively.

Take `Cc1ccc(OCc2ccccc2N2CCNCC2)cc1` [Example 2-17]: the Ki in experiment [1] and in experiment [2] was not above 10000 nM in each case.

On to `Fc1c(Cl)cccc1OCc1ccccc1N1CCNCC1` [Example 2-18], for which the Ki is not above 10000 nM in experiment [1] and not above 100 nM in experiment [2].

Turning to `Clc1cccc(OCc2ccccc2N2CCNCC2)c1Cl` [Example 2-19], the values for the Ki in experiment [1] and in experiment [2] were not above 10000 nM and not above 100 nM, respectively.

`Cc1c(F)cccc1OCc1ccccc1N1CCNCC1` [Example 2-20]: the Ki in experiment [1] was not above 10000 nM; in experiment [2] it was not above 100 nM.

As for `Cc1c(Cl)cccc1OCc1ccccc1N1CCNCC1` [Example 2-21], the Ki in experiment [1] and in experiment [2] was not above 100 nM throughout.

Regarding `N#Cc1c(F)cccc1OCc1ccccc1N1CCNCC1` [Example 2-22], the Ki in experiment [1] was not above 10000 nM; in experiment [2], not above 100 nM.

Regarding `Fc1ccc(F)c(OCc2ccccc2N2CCNCC2)c1` [Example 2-23], the Ki in experiment [1] is not above 10000 nM; in experiment [2], not above 100 nM.

As to `Fc1ccc(Cl)cc1OCc1ccccc1N1CCNCC1` [Example 2-24], the Ki in experiment [1] was not above 10000 nM; in experiment [2] it was not above 100 nM.

In the case of `Fc1ccc(Br)cc1OCc1ccccc1N1CCNCC1` [Example 2-25], the Ki in experiment [1] and in experiment [2] was not above 100 nM throughout.

Consider `Clc1ccc(Cl)c(OCc2ccccc2N2CCNCC2)c1` [Example 2-26], for which the results for the Ki in experiment [1] and in experiment [2] were not above 10000 nM and not above 100 nM, respectively.

As to `Fc1ccc(Cl)c(OCc2ccccc2N2CCNCC2)c1` [Example 2-27], the Ki in experiment [1] was not above 10000 nM; in experiment [2], not above 100 nM.

Take `Fc1ccc(Br)c(OCc2ccccc2N2CCNCC2)c1` [Example 2-28]: the values for the Ki in experiment [1] and in experiment [2] were not above 10000 nM and not above 100 nM, respectively.

As to `Cc1ccc(F)cc1OCc1ccccc1N1CCNCC1` [Example 2-29], the Ki was not above 10000 nM in experiment [1] and not above 100 nM in experiment [2].

`Cc1ccc(Cl)cc1OCc1ccccc1N1CCNCC1` [Example 2-30]: the Ki in experiment [1] and in experiment [2] was not above 100 nM in each case.

In the case of `COc1ccc(Cl)cc1OCc1ccccc1N1CCNCC1` [Example 2-31], the Ki is not above 10000 nM in experiment [1] and not above 100 nM in experiment [2].

Consider `N#Cc1ccc(Cl)cc1OCc1ccccc1N1CCNCC1` [Example 2-32], for which the Ki is not above 10000 nM in experiment [1] and not above 100 nM in experiment [2].

On to `Fc1ccc(OCc2ccccc2N2CCNCC2)cc1F` [Example 2-33], for which the Ki in experiment [1] and in experiment [2] was not above 100 nM each time.

Consider `Fc1cc(OCc2ccccc2N2CCNCC2)ccc1Cl` [Example 2-34], for which the Ki in experiment [1] and in experiment [2] was not above 100 nM throughout.

In the case of `Clc1ccc(OCc2ccccc2N2CCNCC2)cc1Cl` [Example 2-35], the Ki in experiment [1] and in experiment [2] was not above 100 nM each time.

As to `Fc1cc(F)cc(OCc2ccccc2N2CCNCC2)c1` [Example 2-36], the Ki in experiment [1] was not above 10000 nM; in experiment [2] it was not above 100 nM.

`Clc1cc(Cl)cc(OCc2ccccc2N2CCNCC2)c1` [Example 2-37]: the results for the Ki in experiment [1] and in experiment [2] were not above 10000 nM and not above 100 nM, respectively.

As for `CC(C)c1cccc(C(C)C)c1OCc1ccccc1N1CCNCC1` [Example 2-38], the Ki in experiment [1] and in experiment [2] was not above 10000 nM in each case.

Turning to `Clc1cc(Cl)c(OCc2ccccc2N2CCNCC2)cc1Cl` [Example 2-39], the Ki in experiment [1] and in experiment [2] was not above 100 nM each time.

For `Clc1cc(Cl)c(Cl)c(OCc2ccccc2N2CCNCC2)c1Cl` [Example 2-40], the Ki in experiment [1] is not above 10000 nM; in experiment [2], not above 100 nM.

The record behind these values is US9012460B2, “1-(2-phenoxymethylphenyl)piperazine compounds” (Theravance Biopharma R&D IP, LLC, priority 2010, dated 2015).
